The results in this text go back to patent US20240398844A1, “PHENYLCOUMARINS FOR TREATING INFLAMMATION” (Ohio State Innovation Foundation, priority 2021, published 2024).

One assay deals with T1, PPAR-γ (Homo sapiens, UniProt P37231).
T1 construct: endogenous in cells; host or cells: HeLa
T1 sequence (P37231 1-505): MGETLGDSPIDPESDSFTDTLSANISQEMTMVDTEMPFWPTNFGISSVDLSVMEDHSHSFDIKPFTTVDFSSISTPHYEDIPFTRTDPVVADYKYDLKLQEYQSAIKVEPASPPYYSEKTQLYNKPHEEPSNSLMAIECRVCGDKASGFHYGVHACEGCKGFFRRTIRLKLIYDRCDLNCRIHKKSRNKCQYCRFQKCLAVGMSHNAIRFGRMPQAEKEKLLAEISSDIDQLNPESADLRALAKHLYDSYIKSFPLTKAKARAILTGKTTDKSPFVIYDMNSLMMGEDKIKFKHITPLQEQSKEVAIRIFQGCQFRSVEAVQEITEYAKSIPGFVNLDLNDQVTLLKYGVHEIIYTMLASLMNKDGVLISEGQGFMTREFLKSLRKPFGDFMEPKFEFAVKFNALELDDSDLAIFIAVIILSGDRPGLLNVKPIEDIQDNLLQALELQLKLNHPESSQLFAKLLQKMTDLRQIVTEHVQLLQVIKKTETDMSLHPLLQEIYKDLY
Description: PPAR-γ ELISA Assay in HeLa cells (in vitro PPAR-γ assay). It is filed as cell-based. The following applies: 50 μg/mL; for activation at 50 µg/mL: Table 2; for % Activation PPAR-γ: Table 4. As to the method: In addition to the Western blot, the diverse library was also screened in the in vitro PPAR-γ assay. […] The compounds were tested at 50 μg/mL according to the protocol detailed in section 3.2.3.

In another assay the test system is NFκB p65. As to the kind of experiment: Diabetic zebrafish Western blot, NFκB expression. The assay is classed as in vivo. The following applies: diabetic zebrafish, 10 μM, FIG. 5. The method, then: (§1) Alloxan-induced diabetic zebrafish were treated with compounds for immunoblot to validate the newly developed animal model, determine the antidiabetic potential of natural product leads, evaluate glucose metabolism, and discover possible mechanisms of action.
(§2) At 72 hpf, naturally dechorionated zebrafish were sorted into a 24-well microplate with 10 fish per well. Type 2 diabetes was induced with the diabetogenic agent alloxan at a dose of 0.5 mg/mL in system water for 3 hours. […] After 3 hours of treatment with natural product samples, 10 mg/mL D-glucose was administered in system water for 30 minutes, followed by 1 hour in fresh system water to metabolize the glucose and natural product leads. Upon completion of the 4-phase treatment cycle, zebrafish treatment groups were snap frozen into individual microcentrifuge tubes on dry ice, stored overnight at −80° C., thawed, homogenized with 2 μL PBS per animal, and centrifuged at 4° C. for 1 hour at 17,000 rpm. Protein content of homogenate supernatant was determined using the Pierce BCA Protein Assay kit (Pierce Biotechnology) and bovine serum albumin (BSA) standard curve. Absorbance of protein solutions from zebrafish homogenates and serial dilutions of the BSA standard were measured at 544 nm, using a FLUOstar Optima plate reader (BMG Labtechnologies GmbH, Inc.). Homogenates were analyzed by Western blot. Equal amounts of protein (20 μg) were combined with 4× lithium dodecyl sulphate (LDS) loading buffer (NuPAGE, Life Technologies, Carlsbad, CA, USA), brought to volume (15 μL) with PBS, and heated to 95° C. for 5 minutes. Proteins were resolved using NuPAGE Bis-Tris 4-12% gradient sodium dodecyl sulfate polyacrylamide gel electrophoresis (SDS-PAGE) gels together with SeeBlue Plus2 Pre-Stained Standard Ladder (Life Technologies).
(§3) Electrophoresis was performed using NuPAGE MES SDS Running Buffer and XCell SureLock Mini-Cell Electrophoresis System (Life Technologies). Separated proteins were transferred from the gel to a polyvinylidene fluoride (PVDF) membrane using tris buffered saline with Tween-20 (TBST) buffer. The blots were blocked in 3% BSA in TBST and subsequently probed using primary antibodies (1:1000 in 1% BSA in TBST) against each target overnight (Table 1). The secondary, horseradish peroxidase (HRP) conjugated antibodies (1:2000) were obtained from Santa Cruz Biotechnology Inc., (Santa Cruz, CA, USA). Conjugated antibodies were detected using SuperSignal West Femto chemiluminescent substrate from Pierce Biotechnology. Western blots were visualized, and images captured using a luminometer and LumiAnalyst 3.0 software (Boehringer-Mannheim, Mannheim, Germany). Band density was quantified for proteins of interest using ImageJ Gel Analysis.
(§4) In the case of duplicate blots, the band density results were expressed in bar graphs as the mean±standard error of the mean (SEM) of two independent experiments. Due to the labor- and time-intensive aspect of Western blot analysis with multiple target proteins, a maximum of two independent immunoblot experiments were performed per compared sample set. […] Additionally, treatment groups were also evaluated versus the diabetic, untreated control group for significance by Student's f-test and indicated in the bar graphs with p values represented by *p<0.05, **p<0.01, and ***p<0.001. […]
Background: Immunoblotting shows a protein as a band on a membrane.

A further assay has as its system PEPCK. As to the kind of experiment: Diabetic zebrafish Western blot, PEPCK expression. The following applies: 10 μM, library screen, FIG. 4 / FIG. 11. The assay is classed as in vivo. As to the method: as §1
(§5) At 72 hpf, naturally dechorionated zebrafish were sorted into a 24-well microplate with 10 fish per well. Type 2 diabetes was induced with the diabetogenic agent alloxan at a dose of 0.5 mg/mL in system water for 3 hours. The incubation solution was changed to 0.01% DMSO in system water with compounds at concentrations of 20 μg/mL or […], respectively. After 3 hours of treatment with natural product samples, 10 mg/mL D-glucose was administered in system water for 30 minutes, followed by 1 hour in fresh system water to metabolize the glucose and natural product leads. Upon completion of the 4-phase treatment cycle, zebrafish treatment groups were snap frozen into individual microcentrifuge tubes on dry ice, stored overnight at −80° C., thawed, homogenized with 2 μL PBS per animal, and centrifuged at 4° C. for 1 hour at 17,000 rpm. Protein content of homogenate supernatant was determined using the Pierce BCA Protein Assay kit (Pierce Biotechnology) and bovine serum albumin (BSA) standard curve. Absorbance of protein solutions from zebrafish homogenates and serial dilutions of the BSA standard were measured at 544 nm, using a FLUOstar Optima plate reader (BMG Labtechnologies GmbH, Inc.). Homogenates were analyzed by Western blot. Equal amounts of protein (20 μg) were combined with 4× lithium dodecyl sulphate (LDS) loading buffer (NuPAGE, Life Technologies, Carlsbad, CA, USA), brought to volume (15 μL) with PBS, and heated to 95° C. for 5 minutes. Proteins were resolved using NuPAGE Bis-Tris 4-12% gradient sodium dodecyl sulfate polyacrylamide gel electrophoresis (SDS-PAGE) gels together with SeeBlue Plus2 Pre-Stained Standard Ladder (Life Technologies).
as §3, with “Western blots were visualized, and images captured using a luminometer and LumiAnalyst 3.0 software (Boehringer-Mannheim, Mannheim, Germany).” left out, “Analysis. […]” for “Analysis.”

Another assay concerns GLUT-4. As to the kind of experiment: Diabetic zebrafish Western blot, GLUT-4 expression. It is filed as in vivo. The following applies: 10 μM, FIG. 5. As to the method: as §1
as §5, with “Proteins were resolved using NuPAGE Bis-Tris 4-12% gradient sodium dodecyl sulfate polyacrylamide gel electrophoresis (SDS-PAGE) gels together with SeeBlue Plus2 Pre-Stained Standard Ladder (Life Technologies).” left out
Electrophoresis was performed using NuPAGE MES SDS Running Buffer and XCell SureLock Mini-Cell Electrophoresis System (Life Technologies). […] Conjugated antibodies were detected using SuperSignal West Femto chemiluminescent substrate from Pierce Biotechnology. […] Band density was quantified for proteins of interest using ImageJ Gel Analysis. […]

A further assay relates to HbA1C. Description: Diabetic zebrafish Western blot, HbA1C expression. It is filed as in vivo. The following applies: diabetic zebrafish, 10 μM, library screen, FIG. 2 / FIG. 11. The method, then:
as §1, §2, §3, §4

`COc1ccc(-c2cc(=O)c3c(O)cc(O)cc3o2)cc1` [Compound 17] gave an activation at 50 µg/mL at PPAR-γ of 0%.
For the compound `COc1cc(O[C@@H]2OC(CO)[C@H](O)[C@H](O)C2O)c2c(-c3ccc(O)c(O)c3)cc(=O)oc2c1` (stereo partly drawn) [Compound 22], the “NFκB expression (Western blot)” value with NFκB p65 is given as “excellent inhibition of NFκB expression”. Also, on PPAR-γ, the activation at 50 µg/mL was 21% and the “% Activation PPAR-γ” value is on record as 21%. In addition, the “PEPCK expression (Western blot band density)” value in the assay with PEPCK is 31>rosiglitazone>22>23 and greatest PEPCK expression. Besides, the “GLUT-4 expression (Western blot)” value in the assay on GLUT-4 is reported as “strong GLUT-4 expression”.
Compound `C/C=C/C1=CC=C/C(=C2/C(=O)CCNC2=O)O1` [Compound 30] showed an activation at 50 µg/mL at PPAR-γ of 37%.
`O=c1cc(-c2ccc(O)cc2)oc2c([C@H]3OC(CO)[C@@H](O)[C@H](O)C3O)c(O)cc(O)c12` (stereo partly drawn) [Compound 21]: at PPAR-γ, the activation at 50 µg/mL amounted to 57%. Besides, the “HbA1C expression (Western blot band density)” value with HbA1C is listed as “lowest glycated hemoglobin levels”.
The matching figures for `COc1cc(O)c2c(c1)OC(c1ccc(O)cc1)CC2=O` (stereo not drawn) [Compound 19]: 77% and “lowest glycated hemoglobin levels”.
Take `COc1cc(O[C@@H]2OC(CO)[C@@H](O)[C@H](O)C2O)c2c(-c3ccc(O)c(O)c3)cc(=O)oc2c1` (stereo partly drawn) [Compound 23]: the “NFκB expression (Western blot)” value in the assay on NFκB p65 is recorded as “excellent inhibition of NFκB expression”. Further, at PPAR-γ, the activation at 50 µg/mL was found to be 145% and the “% Activation PPAR-γ” value is given as 145%. Moreover, the “PPAR-γ activity in the in vitro assay (in words)” value at PPAR-γ (versus positive control rosiglitazone) is listed as “top performers”. The “PEPCK expression (Western blot band density)” value in the assay with PEPCK is listed as 31>rosiglitazone>22>23. Also, the “GLUT-4 expression (Western blot)” value in the assay with GLUT-4 is listed as “strong GLUT-4 expression”.
`C[C@]12C[C@@H](O)CC3(CCC4[C@@](C)(CCC[C@@]4(C)C(=O)O[C@@H]4OC(CO)[C@@H](O[C@@H]5OC[C@H](O)[C@H](O)C5O)[C@H](O)C4O)C3C(=O)O1)C2` (stereo partly drawn) [Compound 28]: the activation at 50 µg/mL on PPAR-γ was 0%.
The same measure, in the same setting: for `C=C1CC[C@H]2C(=C)CC[C@H]3C(=C)C(=O)O[C@@H]3[C@@H]12` [Compound 29] the value was 0%.
Same read-out and setting: for `Oc1cccc(CCc2ccc3c(c2)OCO3)c1` [Compound 16] the value was 0%; for `CC(C)(O)CCC(=O)[C@](C)(O)[C@H]1[C@H](O)C[C@@]2(C)C3CC=C4[C@@H](CC(O)[C@H](O[C@@H]5OC(CO)[C@@H](O)[C@H](O)C5O)C4(C)C)C3C(=O)C[C@@]12C` (stereo partly drawn) [Compound 27], 65%.
